Marks after values point to notes of the source that are not given here.
Experiments:
[1] = Incubation with heat-inactivated human liver microsomes (stability control); details: 60 min
Description: (§1) The test articles were incubated at two concentrations (1 and 10 μM) in 96-well plate format with active or heat-inactivated human liver microsomes and cofactors. Aliquots were removed at 0, 15, 30 and 60 minutes and mixed with acetonitrile containing internal standard for analysis. Samples were extracted and assayed using a liquid chromatography/tandem mass spectrometry (LC-MS/MS) analytical method.
(§2) The test articles (1 and 10 μM) were incubated with human liver microsomes (0.5 mg protein/ml) and appropriate cofactors (2.5 mM NADPH and 3.3 mM magnesium chloride) in 100 mM phosphate buffer, pH 7.4 (0.1% final DMSO), in a 37° C. water bath. Incubations with all compounds were initiated with the addition of microsomes. At selected time points (0, 15, 30 and 60 min), a single 100 μl aliquot was removed from each sample and mixed with 200 μl of chilled acetonitrile containing internal standard. Following brief vortexing and centrifugation, the samples were further diluted into a 96-well plate for subsequent LC-MS/MS analysis. All samples were assayed in duplicate.
(§3) Experimental controls consisted of: a) incubation of all components except test article for 0 and 60 min, b) incubation of midazolam (positive control) at 10 μM for 0, 15, 30 and 60 min, and c) incubation of 1 and 10 μM test article and 10 μM midazolam with heat-inactivated microsomes (0.5 mg protein/ml) for 0 and 60 min. All controls were assayed in duplicate.
(§4) Data from the metabolic stability assays were transferred to and processed in a Microsoft Excel spreadsheet. To determine metabolic stability, the percent remaining at each time point was calculated by dividing the peak area ratio of test article/internal standard at each time point by the peak area ratio at 0 min multiplied by 100.

[2] = In vitro metabolic stability using human liver microsomes; details: for % remaining: at both 1 and 10 μM
Description: The metabolic stability of 15 GABAA receptor ligands using human liver microsomes was studied. The test articles were incubated at two concentrations (1 and 10 μM) and aliquots (100 μl) were removed at various time points (0, 15, 30 and 60 minutes), and analyzed by LC-MS/MS.
as §1
Pooled human liver microsomes (Lot #38289, pool of 150 different male and female donor livers) were obtained from BD Biosciences Corporation (Woburn, Mass.). Microsomes were stored at ˜−135° C. until use.
as §2, §3
Samples were analyzed by LC-MS/MS in multiple reaction monitoring mode using positive-ion electrospray ionization. The details of the LC-MS/MS method can be provided upon request.
as §4

| Compound | melting point | Mean % Remaining vs T = 0 min, with HI (Heat Inactivated) Microsomes ([1]; 1 μM) [%] | Mean % Remaining vs T = 0 min, with HI (Heat Inactivated) Microsomes ([1]; 10 μM) [%] | Mean % Remaining vs T = 0 min, Human Liver Microsomes ([2]; 1 μM, 15 min) [%] | Mean % Remaining vs T = 0 min, Human Liver Microsomes ([2]; 1 μM, 30 min) [%] | Mean % Remaining vs T = 0 min, Human Liver Microsomes ([2]; 1 μM, 60 min) | Mean % Remaining vs T = 0 min, Human Liver Microsomes ([2]; 10 μM, 15 min) [%] | Mean % Remaining vs T = 0 min, Human Liver Microsomes ([2]; 10 μM, 30 min) [%] | Mean % Remaining vs T = 0 min, Human Liver Microsomes ([2]; 10 μM, 60 min) [%] | other results |
| --- | --- | --- | --- | --- | --- | --- | --- | --- | --- | --- |
| C#Cc1ccc2c(c1)C(c1ccccc1)=NCc1c(C(=O)NC)ncn1-2 | 237 to 238 °C | – | – | – | – | – | – | – | – | – |
| C#Cc1ccc2c(c1)C(c1ccccc1F)=NCc1c(C(=O)OCCCCCOC(=O)c3ncn4c3CN(C)C(=O)c3cc(Cl)ccc3-4)ncn1-2 | 125 to 130 °C | – | – | – | – | – | – | – | – | – |
| C#Cc1ccc2c(c1)C(c1ccccc1)=NCc1c(C(=O)OCCCCCOC(=O)c3ncn4c3CN(C)C(=O)c3cc(Cl)ccc3-4)ncn1-2 | 155 to 160 °C (dec.) | – | – | – | – | – | – | – | – | – |
| C#Cc1ccc2c(c1)C(c1ccccc1F)=N[C@@H](C)c1c(C(=O)OCC)ncn1-2 [SH-053-2′F-SCH3] | – | 110 | 114 | 6.18 | 0.85 | 3.85^d % | 11.7 | 1.72 | 0.20 | % remaining ([2]; 15 min): less than 12% |
| C#Cc1ccc2c(c1)C(c1ccccn1)=NCc1c(-c3nc(C(C)C)no3)ncn1-2 [ZJW-II-040, 5-(8-Ethynyl-6-(pyridin-2-yl)-4H-Benzo-[f]-Imidazo-[1,5-a]-[1,4]-Diazepine-3-yl)-3-Isopropyl-1,2,4-Oxadiazole] | – | 113 | 92.0 | 97.8 | 98.7 | 89.4% | 106 | 99.3 | 95.1 | – |
| C#Cc1ccc2c(c1)C(c1ccccc1)=NCc1c(C(=O)O)ncn1-2 [XHe-II-053 Acid] | – | 106 | 97.4 | 108 | 106 | 111% | 95.6 | 95.0 | 95.0 | – |
| C#Cc1ccc2c(c1)C(c1ccccc1)=NCc1c(C(=O)OCC)ncn1-2 [XHe-II-053] | – | 107 | 102 | 41.4 | 11.1 | 1.46% | 47.6 | 13.9 | 1.74 | – |
| CN1Cc2c(C(=O)OCCCCOC(=O)c3ncn4c3CN(C)C(=O)c3cc(Cl)ccc3-4)ncn2-c2ccc(Cl)cc2C1=O | 308 to 312 °C | – | – | – | – | – | – | – | – | – |
| C#Cc1ccc2c(c1)C(c1ccccc1F)=N[C@@H](C)c1c(C(=O)N3CCN(C(=O)c4ncn5c4[C@H](C)N=C(c4ccccc4F)c4cc(C#C)ccc4-5)CC3)ncn1-2 | 180 to 190 °C | – | – | – | – | – | – | – | – | – |
| C#Cc1ccc2c(c1)C(c1ccccc1F)=N[C@@H](C)c1c(C(=O)OCCCCCOC(=O)c3ncn4c3CN(C)C(=O)c3cc(Cl)ccc3-4)ncn1-2 | 157 to 162 °C (dec.) | – | – | – | – | – | – | – | – | – |
| O=C(OCCCCCOC(=O)c1ncn2c1[C@@H]1CCCN1C(=O)c1cc(Br)ccc1-2)c1ncn2c1C1CCCN1C(=O)c1cc(Br)ccc1-2 (some centres unmarked) | 157 to 161 °C | – | – | – | – | – | – | – | – | – |
| C#Cc1ccc2c(c1)C(=O)N1CCCC1c1c(C(=O)N3CCN(C(=O)c4ncn5c4[C@@H]4CCCN4C(=O)c4cc(C#C)ccc4-5)CC3)ncn1-2 (some centres unmarked) | 206 to 211 °C | – | – | – | – | – | – | – | – | – |
| C#Cc1ccc2c(c1)C(c1ccccc1F)=N[C@@H](C)c1c(C(=O)OCCCCCOC(=O)c3ncn4c3[C@H](C)N=C(c3ccccc3F)c3cc(C#C)ccc3-4)ncn1-2 | 150 to 155 °C | – | – | – | – | – | – | – | – | – |
| CN1Cc2c(C(=O)OCCCCCOC(=O)c3ncn4c3CN(C)C(=O)c3cc(Cl)ccc3-4)ncn2-c2ccc(Cl)cc2C1=O | 146 to 152 °C | – | – | – | – | – | – | – | – | – |
| C#Cc1ccc2c(c1)C(c1ccccn1)=NCc1c(C(=O)OCC)ncn1-2 [HZ-166] | – | 94.1 | 95.4 | 106 | 98.4 | 80.4% | 104 | 90.7 | 76.3 | – |
| C#Cc1ccc2c(c1)C(c1ccccn1)=NCc1c(C(=O)SC)ncn1-2 [ZJW-II-065, S-Methyl-8-Ethynyl-Methyl-6-(Pyridine-2-yl)-4H-Benzo-[f]-Imidazo-[1,5-a]-[1,4]-Diazepine-3-Carbothioate] | – | 105 | 110 | 98.4 | 97.0 | 82.5% | 111 | 106 | 95.6 | – |
| C#Cc1ccc2c(c1)C(c1ccccc1F)=N[C@H](C)c1c(C(=O)OCC)ncn1-2 [SH-053-2′F-RCH3] | – | 115 | 117 | 86.7 | 86.7 | 86.9% | 97.9 | 105 | 105 | – |
| O=C(OCCCCOC(=O)c1ncn2c1[C@@H]1CCCN1C(=O)c1cc(Br)ccc1-2)c1ncn2c1C1CCCN1C(=O)c1cc(Br)ccc1-2 (some centres unmarked) | 166 to 171 °C | – | – | – | – | – | – | – | – | – |
| CN1Cc2c(C(=O)N3CCN(C(=O)c4ncn5c4CN(C)C(=O)c4cc(Cl)ccc4-5)CC3)ncn2-c2ccc(Cl)cc2C1=O | 367 to 374 °C | – | – | – | – | – | – | – | – | – |
| Cc1ncc2n1-c1ccc(Cl)cc1C(c1ccccc1F)=NC2 [Midazolam] | – | – | – | – | – | – | – | – | – | Mean % Remaining vs T = 0 min, with HI (Heat Inactivated) Microsomes ([1]; 10 μM, positive control, data from three experiments): 104 ± 1.2%; Mean % Remaining vs T = 0 min, Human Liver Microsomes ([2]; 10 μM, 15 min, positive control, data from three experiments): 36.9 ± 13.5%; Mean % Remaining vs T = 0 min, Human Liver Microsomes ([2]; 10 μM, 30 min, positive control, data from three experiments): 18.7 ± 7.3%; Mean % Remaining vs T = 0 min, Human Liver Microsomes ([2]; 10 μM, 60 min, positive control, data from three experiments): 4.2 ± 2.2%; metabolism observed (in words) ([2]; active human liver microsomes, up to 60 min): consistently metabolized |
| C#Cc1ccc2c(c1)C(c1ccccc1)=NCc1c(C(=O)OCCCCCOC(=O)c3ncn4c3CN=C(c3ccccc3F)c3cc(C#C)ccc3-4)ncn1-2 | 145 to 150 °C | – | – | – | – | – | – | – | – | – |
| C#Cc1ccc2c(c1)C(c1ccccc1F)=N[C@@H](C)c1c(C(=O)OCCCCOC(=O)c3ncn4c3[C@H](C)N=C(c3ccccc3F)c3cc(C#C)ccc3-4)ncn1-2 | 158 to 160 °C | – | – | – | – | – | – | – | – | – |
| C#Cc1ccc2c(c1)C(c1ccccc1F)=NCc1c(C(=O)OCC)ncn1-2 [JY-XHe-053] | – | 102 | 111 | 13.5 | 2.13 | 0.27% | 20.0 | 3.60 | 0.56 | % remaining ([2]; 15 min): less than 20% |
| C#Cc1ccc2c(c1)C(=O)N1CCCC1c1c(C(=O)OCCCOC(=O)c3ncn4c3CN(C)C(=O)c3cc(Cl)ccc3-4)ncn1-2 (centres unmarked) | 174 to 176 °C | – | – | – | – | – | – | – | – | – |

— patent US9597342B2 (UWM Research Foundation, Inc., priority 2011, dated 2017)
